From PubChem BioAssay (NCI)
Several values for one entry are separate records, joined by “and”; a condition that tells them apart may be missing. Identical values can stand only once.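 1) Cells in 96-well plates. 2) Compound, 48 h, 5 concentrations. 3) Linear interpolation between surrounding doses. 4) Unreached endpoint = highest concentration. Abbreviation: GI50, concentration required for 50% inhibition of growth. At the TGI there is no net growth.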

Tests used:
Assay in all cases: DTP human tumour cell line panel, 48 h
[1] = test system: EKVX NSCLC
[2] = test system: BT-549 breast
[3] = test system: SNB-19 CNS
[4] = test system: HCC-2998 colon
[5] = test system: MDA-MB-231 breast
[6] = test system: NCI-H23 lung
[7] = test system: MOLT-4 leukemia
[8] = test system: SF-268 CNS
[9] = test system: NCI/ADR-RES ovarian
[10] = test system: OVCAR-5 ovarian
[11] = test system: K-562 leukemia
[12] = test system: SK-MEL-28 melanoma
[13] = test system: MCF7 breast
[14] = test system: HOP-62 NSCLC
[15] = test system: SN12C renal
[16] = test system: DU-145 prostate
[17] = test system: SF-539 CNS
[18] = test system: HT29 colon
[19] = test system: RPMI-8226 leukemia
[20] = test system: MDA-MB-435
[21] = test system: MALME-3M melanoma
[22] = test system: UACC-62 melanoma
[23] = test system: SK-MEL-2 melanoma
[24] = test system: OVCAR-3 ovarian
[25] = test system: NCI-H522 lung
[26] = test system: PC-3 prostate
[27] = test system: TK-10 renal
[28] = test system: COLO 205 colon
[29] = test system: HCT-15 colon
[30] = test system: SK-MEL-5 melanoma
[31] = test system: HS 578T breast
[32] = test system: HOP-92 NSCLC
[33] = test system: ACHN renal
[34] = test system: T-47D breast
[35] = test system: MDA-N
[36] = test system: SR leukemia
[37] = test system: IGROV1 ovarian
[38] = test system: HL-60(TB) leukemia
[39] = test system: 786-0 renal
[40] = test system: OVCAR-8 ovarian
[41] = test system: SW-620 colon
[42] = test system: KM12 colon
[43] = test system: U251 CNS
[44] = test system: OVCAR-4 ovarian
[45] = test system: A549 NSCLC
[46] = test system: SF-295 CNS
[47] = test system: CAKI-1 renal
[48] = test system: RXF 393 renal
[49] = test system: M14 melanoma
[50] = test system: NCI-H460 lung
[51] = test system: A498 renal
[52] = test system: SK-OV-3 ovarian
[53] = test system: SNB-75 CNS
[54] = test system: NCI-H226 lung
[55] = test system: CCRF-CEM leukemia
[56] = test system: UACC-257 melanoma
[57] = test system: HCT-116 colon
[58] = test system: XF 498 CNS
[59] = test system: UO-31 renal
[60] = test system: M19-MEL melanoma
[61] = test system: DMS 114 small cell lung
[62] = test system: HOP-18 NSCLC
[63] = test system: LOX IMVI melanoma
[64] = test system: DMS 273 small cell lung

## CCCCC[C@@H]1OCO[C@@]2(C)/C=C(C)/C=C/C(=O)O[C@H]([C@@H](C)[C@@H](O)[C@H](C)[C@@]3(O)C[C@@H](O[C@H]4C[C@@H](O)[C@H](O)[C@@H](C)O4)[C@H](C)[C@@H](C)O3)[C@@H](OC)/C=C/C=C(\C)C[C@@H]1[C@@H]2O (stereo in doubt)
[1]
  TGI: 3.07 µM
[2]
  TGI: 16.5 µM
[3]
  TGI: 7.78 µM
[4]
  TGI: 0.745 µM
[5]
  TGI: 1.59 µM
[6]
  TGI: 11.5 µM
[7]
  TGI: 0.809 µM
[8]
  TGI: 7.77 µM
[9]
  TGI: 15.8 µM
[10]
  TGI: 0.215 µM
[11]
  TGI: 7.54 µM
[12]
  TGI: 1.68 µM
[13]
  TGI: 3.32 µM
[14]
  TGI: 7.02 µM
[15]
  TGI: 3.49 µM
[16]
  TGI: 7.9 µM
[17]
  TGI: 3.23 µM
[18]
  TGI: 0.0544 µM
[19]
  TGI: 50 µM
[20]
  TGI: 0.541 µM
[21]
  TGI: 0.308 µM
[22]
  TGI: < 0.005 µM
[23]
  TGI: < 0.005 µM
[24]
  TGI: 2.46 µM
[25]
  TGI: 7.46 µM
[26]
  TGI: 1.64 µM
[27]
  TGI: 8.83 µM
[28]
  TGI: 0.666 µM
[29]
  TGI: 7.17 µM
[30]
  TGI: < 0.005 µM
[31]
  TGI: 50 µM
[32]
  TGI: 0.0992 µM
[33]
  TGI: 1.33 µM
[34]
  TGI: 9.09 µM
[35]
  TGI: 0.203 µM
[36]
  TGI: < 0.005 µM
[37]
  TGI: 8.22 µM
[38]
  TGI: 0.0587 µM
[39]
  TGI: 0.676 µM
[40]
  TGI: 7.38 µM
[41]
  TGI: 6.67 µM
[42]
  TGI: 5.36 µM
[43]
  TGI: 5.36 µM
[44]
  TGI: 8.38 µM
[45]
  TGI: 0.733 µM
[46]
  TGI: 0.0563 µM
[47]
  TGI: 2.69 µM
[48]
  TGI: 1.19 µM
[49]
  TGI: < 0.005 µM
[50]
  TGI: 5.3 µM
[51]
  TGI: 0.0829 µM
[52]
  TGI: 5.38 µM
[53]
  TGI: 2.64 µM
[54]
  TGI: 0.0468 µM
[55]
  TGI: 0.455 µM
[56]
  TGI: < 0.005 µM
[57]
  TGI: 0.609 µM

## CC(=O)NS(=O)(=O)c1ccc(NC(=O)COC(=O)c2cccc3c(=O)c4ccccc4[nH]c23)cc1
[1]
  TGI: > 100 µM
[3]
  TGI: > 100 µM
[6]
  TGI: > 100 µM
[7]
  TGI: > 100 µM
[58]
  TGI: > 100 µM
[11]
  TGI: > 100 µM
[12]
  TGI: > 100 µM
[14]
  TGI: > 100 µM
[15]
  TGI: > 100 µM
[17]
  TGI: > 100 µM
[18]
  TGI: > 100 µM
[59]
  TGI: > 100 µM
[19]
  TGI: > 100 µM
[21]
  TGI: > 100 µM
[22]
  TGI: > 100 µM
[23]
  TGI: > 100 µM
[24]
  TGI: > 100 µM
[25]
  TGI: > 100 µM
[27]
  TGI: > 100 µM
[28]
  TGI: > 100 µM
[29]
  TGI: > 100 µM
[30]
  TGI: > 100 µM
[33]
  TGI: > 100 µM
[60]
  TGI: > 100 µM
[37]
  TGI: > 100 µM
[61]
  TGI: > 100 µM
[38]
  TGI: > 100 µM
[39]
  TGI: > 100 µM
[40]
  TGI: > 100 µM
[41]
  TGI: > 100 µM
[42]
  TGI: > 100 µM
[43]
  TGI: > 100 µM
[45]
  TGI: > 100 µM
[62]
  TGI: > 100 µM
[46]
  TGI: > 100 µM
[63]
  TGI: > 100 µM
[64]
  TGI: > 100 µM
[48]
  TGI: > 100 µM
[49]
  TGI: > 100 µM
[50]
  TGI: > 100 µM
[52]
  TGI: > 100 µM
[53]
  TGI: > 100 µM
[54]
  TGI: > 100 µM
[55]
  TGI: > 100 µM
[56]
  TGI: > 100 µM
[57]
  TGI: > 100 µM

## N#CCCC1C(C#N)C2CC1C1C3C=CC(C3)C21 (stereo not drawn)
[1]
  TGI: > 100 µM
[2]
  TGI: > 100 µM
[3]
  TGI: > 100 µM
[4]
  TGI: > 100 µM
[5]
  TGI: > 100 µM
[6]
  TGI: > 100 µM
[7]
  TGI: > 100 µM
[8]
  TGI: > 100 µM
[9]
  TGI: > 100 µM
[10]
  TGI: > 100 µM
[11]
  TGI: > 100 µM
[12]
  TGI: > 100 µM
[13]
  TGI: > 100 µM
[16]
  TGI: > 100 µM
[18]
  TGI: > 100 µM
[59]
  TGI: > 100 µM
[19]
  TGI: > 100 µM
[20]
  TGI: > 100 µM
[21]
  TGI: > 100 µM
[22]
  TGI: > 100 µM
[23]
  TGI: > 100 µM
[24]
  TGI: > 100 µM
[25]
  TGI: > 100 µM
[26]
  TGI: > 100 µM
[27]
  TGI: > 100 µM
[28]
  TGI: > 100 µM
[29]
  TGI: > 100 µM
[30]
  TGI: > 100 µM
[31]
  TGI: > 100 µM
[32]
  TGI: > 100 µM
[33]
  TGI: > 100 µM
[34]
  TGI: > 100 µM
[35]
  TGI: > 100 µM
[36]
  TGI: > 100 µM
[37]
  TGI: > 100 µM
[38]
  TGI: > 100 µM
[39]
  TGI: > 100 µM
[40]
  TGI: > 100 µM
[41]
  TGI: > 100 µM
[42]
  TGI: > 100 µM
[44]
  TGI: > 100 µM
[45]
  TGI: > 100 µM
[46]
  TGI: > 100 µM
[63]
  TGI: > 100 µM
[47]
  TGI: > 100 µM
[48]
  TGI: > 100 µM
[49]
  TGI: > 100 µM
[52]
  TGI: > 100 µM
[53]
  TGI: > 100 µM
[54]
  TGI: > 100 µM
[55]
  TGI: > 100 µM
[56]
  TGI: > 100 µM
[57]
  TGI: > 100 µM

## NC(=O)c1cn(C2OC(CO)C(O)C2O)c2ncnc(N)c12 (stereo not drawn)
[2]
  TGI: 0.0389 µM
[4]
  TGI: 216 nM [middle of 4 runs]
[5]
  TGI: 0.102 µM
[13]
  GI50: 0.0207 µM
[16]
  TGI: 0.0487 µM
[20]
  TGI: 0.036 µM
[25]
  GI50: 0.0482 µM and 0.021 µM
  TGI: 0.206 µM and 0.0701 µM
[26]
  TGI: 0.00574 µM
[27]
  TGI: 0.0707 µM
[31]
  TGI: 0.0758 µM
[33]
  TGI: 0.103 µM
[34]
  TGI: 0.0523 µM
[36]
  GI50: 0.0128 µM
  TGI: 0.0946 µM
[61]
  TGI: 0.205 µM and 0.326 µM
[39]
  TGI: 0.0684 µM
[40]
  TGI: 0.383 µM and 0.904 µM and 0.0921 µM
[64]
  GI50: 0.0875 µM and 0.07 µM
  TGI: 118 nM [middle of 4 runs]
[55]
  GI50: 0.00559 µM and 0.0246 µM and 0.00627 µM
  TGI: 0.148 µM and 0.0759 µM
